How the values were obtained:
Type in all cases: cell-based
[1] = system: nucleoside uptake (3H-Thymidine); test: Rel.Uptake: nucleoside uptake, single concentration assay, cell line as indicated in each table; conditions: 293T, nucleoside uptake, response relative to DMSO
Description: (§1) Nucleoside Uptake Assay (uptake). Nuceloside uptake assays were performed with using 3H-Thymidine as described in Guo et al. (2018) Nat. Chem. 11:254-63. Specific cell lines are indicated in each assay and cultured in complete growth media. Activity is scored according to the IC50 values relative to DMSO control. “Low” indicates an IC50 greater than 600 nM, “Medium” indicates an IC50 between 300 nM and 600 nM “High” indicates an IC50 less than 300 nM. “Rel.Uptake” refers to uptake activity characterization relative to a single concentration assay. “Low” indicates a response greater than 0.6 times the activity relative to DMSO, “Medium” indicates a response between 0.6 and 0.3 times the activity relative to DMSO, “High” indicates a response less than 0.3 times the activity relative to DMSO.

[2] = system: H929; test: Cell proliferation assay (Prolif.), H929; conditions: H929 cells; Table 11
Description: Cell Proliferation Assay (Prolif.) Guo et al. (2018) Nat. Chem. 11:254-63. Specific cell lines are indicated in each assay and cultured in complete growth media. Activity is scored according to the IC50 values relative to DMSO control. “Low” indicates an IC50 greater than 600 nM, “Medium” indicates an IC50 between 300 nM and 600 nM “High” indicates an IC50 less than 300 nM. “Rel.Uptake” refers to uptake activity characterization relative to a single concentration assay. “Low” indicates a response greater than 0.6 times the activity relative to DMSO, “Medium” indicates a response between 0.6 and 0.3 times the activity relative to DMSO, “High” indicates a response less than 0.3 times the activity relative to DMSO.

[3] = system: nucleoside uptake (3H-Thymidine); test: Nucleoside uptake assay (uptake) using 3H-Thymidine, IC50, cell line as indicated in each table (none given in Table 8); conditions: 3H-Thymidine uptake; cell line not given
Description: as §1

| SMILES | Rel. Uptake, 293T [1] | Prolif, H929 [2] | IC50 [3] [µM] |
| --- | --- | --- | --- |
| COc1cc(CC[C@H]2OC(=O)[C@@H]3CCCCN3C(=O)C(=O)C(C)(C)COC(=O)C=CCCN(C)C(=O)[C@@H](Cc3ccccc3)NC(=O)CN(C)C(=O)[C@@H](Cc3ccccc3)NC(=O)[C@H](Cc3ccc(O)cc3)N(C)C(=O)COc3cccc2c3)cc(OC)c1OC [Compound 1566] | medium | medium | – |
| COc1cc(CC[C@H]2OC(=O)[C@@H]3CCCCN3C(=O)C(=O)C(C)(C)COC(=O)C=CCCN(C)C(=O)[C@@H](Cc3ccccc3)NC(=O)CN(C)C(=O)[C@@H](Cc3ccccc3)NC(=O)[C@H](Cc3ccc(O)cc3)N(C)C(=O)COc3cccc2c3)cc(O)c1OC [Compound 1567] | medium | medium | – |
| COc1cc(O)c(CC[C@H]2OC(=O)[C@@H]3CCCCN3C(=O)C(=O)C(C)(C)COC(=O)C=CCCN(C)C(=O)[C@@H](Cc3ccccc3)NC(=O)CN(C)C(=O)[C@@H](Cc3ccccc3)NC(=O)[C@H](Cc3ccc(O)cc3)N(C)C(=O)COc3cccc2c3)cc1OC [Compound 1568] | low | low | – |
| COc1cc(CC[C@H]2OC(=O)[C@@H]3CCCCN3C(=O)C(=O)C(C)(C)COC(=O)C=CCCN(C)C(=O)[C@@H](Cc3ccccc3)NC(=O)CN(C)C(=O)[C@@H](Cc3ccccc3)NC(=O)[C@H](Cc3ccc(O)cc3)N(C)C(=O)COc3cccc2c3)cc(F)c1OC [Compound 1569] | low | low | – |
| COc1cc(F)c(CC[C@H]2OC(=O)[C@@H]3CCCCN3C(=O)C(=O)C(C)(C)COC(=O)C=CCCN(C)C(=O)[C@@H](Cc3ccccc3)NC(=O)CN(C)C(=O)[C@@H](Cc3ccccc3)NC(=O)[C@H](Cc3ccc(O)cc3)N(C)C(=O)COc3cccc2c3)cc1OC [Compound 1570] | medium | medium | – |
| COc1ccc(CC[C@H]2OC(=O)[C@@H]3CCCCN3C(=O)C(=O)C(C)(C)COC(=O)C=CCCN(C)C(=O)[C@@H](Cc3ccccc3)NC(=O)CN(C)C(=O)[C@@H](Cc3ccccc3)NC(=O)[C@H](Cc3ccc(O)cc3)N(C)C(=O)COc3cccc2c3)c(F)c1OC [Compound 1571] | low | low | – |
| COc1ccc(CC[C@H]2OC(=O)[C@@H]3CN(C(=O)OCC4c5ccccc5-c5ccccc54)CCN3C(=O)C(=O)C(C)(C)COC(=O)C=CCCN(C)C(=O)[C@@H](Cc3ccccc3)NC(=O)CN(C)C(=O)[C@@H](Cc3ccccc3)NC(=O)[C@H](Cc3ccc(O)cc3)N(C)C(=O)COc3cccc2c3)cc1OC [Compound 1572] | low | low | – |
| COc1ccc(CC[C@H]2OC(=O)[C@@H]3CNCCN3C(=O)C(=O)C(C)(C)COC(=O)C=CCCN(C)C(=O)[C@@H](Cc3ccccc3)NC(=O)CN(C)C(=O)[C@@H](Cc3ccccc3)NC(=O)[C@H](Cc3ccc(O)cc3)N(C)C(=O)COc3cccc2c3)cc1OC [Compound 1573] | low | low | – |
| COc1ccc(CC[C@H]2OC(=O)[C@@H]3CN(C)CCN3C(=O)C(=O)C(C)(C)COC(=O)C=CCCN(C)C(=O)[C@@H](Cc3ccccc3)NC(=O)CN(C)C(=O)[C@@H](Cc3ccccc3)NC(=O)[C@H](Cc3ccc(O)cc3)N(C)C(=O)COc3cccc2c3)cc1OC [Compound 1574] | low | low | – |
| COc1ccc(CC[C@H]2OC(=O)[C@@H]3CCCCN3C(=O)C(=O)C(C)(C)COC(=O)C=CCCN(C)C(=O)[C@@H](Cc3ccccc3)NC(=O)CN(C)C(=O)[C@@H](Cc3ccccc3)NC(=O)[C@H](Cc3ccc(O)cc3)N(C)C(=O)COc3ccc(F)c2c3)cc1OC [Compound 1575] | low | low | – |
| COc1ccc(CC[C@H]2OC(=O)[C@@H]3CCCCN3C(=O)C(=O)C(C)(C)COC(=O)C=CCCN(C)C(=O)[C@@H](Cc3ccccc3)NC(=O)CN(C)C(=O)[C@@H](Cc3ccccc3)NC(=O)[C@H](Cc3ccc(O)cc3)N(C)C(=O)COc3cc(F)cc2c3)cc1OC [Compound 1576] | medium | medium | – |
| COc1ccc(CC[C@H]2OC(=O)[C@@H]3CCCCN3C(=O)C(=O)C(C)(C)COC(=O)C=CCCN(C)C(=O)[C@@H](Cc3ccccc3)NC(=O)CN(C)C(=O)[C@@H](Cc3ccccc3)NC(=O)[C@H](Cc3ccc(O)cc3)N(C)C(=O)COc3cccc2c3)c(OC)c1OC [Compound 1577] | medium | medium | – |
| COc1ccc(CC[C@H]2OC(=O)[C@@H]3CCCCN3C(=O)C(=O)C(C)(C)COC(=O)C=CCCN(C)C(=O)[C@@H](Cc3ccccc3)NC(=O)CN(C)C(=O)[C@@H](Cc3ccccc3)NC(=O)[C@H](Cc3ccc(O)cc3)N(C)C(=O)COc3cc2ccc3F)cc1OC [Compound 1578] | low | low | – |
| COc1ccc(CC[C@H]2OC(=O)[C@@H]3CCCCN3C(=O)C(=O)C(C)(C)COC(=O)C=CCCN(C)C(=O)[C@@H](Cc3ccccc3)NC(=O)CN(C)C(=O)[C@@H](Cc3ccccc3)NC(=O)[C@H](Cc3ccc(O)cc3)N(C)C(=O)COc3cccc2c3F)cc1OC [Compound 1579] | medium | medium | – |
| COc1ccc(CC[C@H]2OC(=O)[C@@H]3CCCCN3C(=O)C(=O)C(C)(C)COC(=O)C=CCCN(C)C(=O)[C@@H](Cc3ccccc3)NC(=O)CN(C)C(=O)[C@@H](Cc3ccccc3)NC(=O)[C@H](Cc3ccc(O)cc3)N(C)C(=O)COc3cncc2c3)cc1OC [Compound 1580] | low | low | – |
| COc1cc(OC)c(OC)cc1CC[C@H]1OC(=O)[C@@H]2CCCCN2C(=O)C(=O)C(C)(C)COC(=O)C=CCCN(C)C(=O)[C@@H](Cc2ccccc2)NC(=O)CN(C)C(=O)[C@@H](Cc2ccccc2)NC(=O)[C@H](Cc2ccc(O)cc2)N(C)C(=O)COc2cccc1c2 [Compound 1581] | medium | medium | – |
| COc1cc(CC[C@H]2OC(=O)[C@@H]3CCCCN3C(=O)C(=O)C(C)(C)COC(=O)C=CCCN(C)C(=O)[C@@H](Cc3ccccc3)NC(=O)CN(C)C(=O)[C@@H](Cc3ccccc3)NC(=O)[C@H](Cc3ccc(O)cc3)N(C)C(=O)COc3cccc2c3)c(OC)c(OC)c1 [Compound 1582] | low | low | – |
| COc1ccc(OC)c(OC)c1CC[C@H]1OC(=O)[C@@H]2CCCCN2C(=O)C(=O)C(C)(C)COC(=O)C=CCCN(C)C(=O)[C@@H](Cc2ccccc2)NC(=O)CN(C)C(=O)[C@@H](Cc2ccccc2)NC(=O)[C@H](Cc2ccc(O)cc2)N(C)C(=O)COc2cccc1c2 [Compound 1583] | low | low | – |
| COc1ccc(CC[C@H]2OC(=O)[C@@H]3CCCCN3C(=O)C(=O)C(C)(C)COC(=O)C=CCCN(C)C(=O)[C@@H](Cc3ccccc3)NC(=O)CN(C)C(=O)[C@@H](Cc3ccccc3)NC(=O)[C@H](Cc3ccc(O)cc3)N(C)C(=O)COc3cccc2c3)c(O)c1OC [Compound 1584] | low | low | – |
| COc1ccc(CC[C@H]2OC(=O)[C@@H]3CCCCN3C(=O)C(=O)C(C)(C)COC(=O)/C=C/CCN(C)C(=O)[C@H](C(C)C)N(C)C(=O)[C@@H]3CCCN3C(=O)[C@@H](Cc3ccccc3)N(C)C(=O)CNC(=O)CCC(=O)Nc3cccc2c3)cc1OC [Compound 1605] | – | – | 0.0279 |
| COc1ccc(CC[C@H]2OC(=O)[C@@H]3CCCCN3C(=O)C(=O)C(C)(C)COC(=O)/C=C/CCN(C)C(=O)[C@H](C(C)C)N(C)C(=O)[C@@H]3CCCN3C(=O)[C@@H](Cc3ccccc3)N(C)C(=O)[C@H](C)NC(=O)CCC(=O)Nc3cccc2c3)cc1OC [Compound 1606] | – | – | 0.0237 |
| CCC[C@@H]1NC(=O)CCC(=O)Nc2cccc(c2)[C@@H](CCc2ccc(OC)c(OC)c2)OC(=O)[C@@H]2CCCCN2C(=O)C(=O)C(C)(C)COC(=O)/C=C/CCN(C)C(=O)[C@H](C(C)C)N(C)C(=O)[C@@H]2CCCN2C(=O)[C@@H](Cc2ccccc2)N(C)C1=O [Compound 1607] | – | – | 0.018 |
| COc1ccc(CC[C@H]2OC(=O)[C@@H]3CCCCN3C(=O)C(=O)C(C)(C)COC(=O)/C=C/CCN(C)C(=O)[C@H](C(C)C)N(C)C(=O)[C@@H]3CCCN3C(=O)[C@@H](Cc3ccccc3)N(C)C(=O)[C@H](CC(C)C)NC(=O)CCC(=O)Nc3cccc2c3)cc1OC [Compound 1608] | – | – | 0.0541 |
| COc1ccc(CC[C@H]2OC(=O)[C@@H]3CCCCN3C(=O)C(=O)C(C)(C)COC(=O)/C=C/CCN(C)C(=O)[C@H](C(C)C)N(C)C(=O)[C@@H]3CCCN3C(=O)[C@@H](Cc3ccccc3)N(C)C(=O)[C@H](Cc3ccccc3)NC(=O)CCC(=O)Nc3cccc2c3)cc1OC [Compound 1609] | – | – | 0.055 |
| COc1ccc(CC[C@H]2OC(=O)[C@@H]3CCCCN3C(=O)C(=O)C(C)(C)COC(=O)/C=C/CCN(C)C(=O)[C@H](C(C)C)N(C)C(=O)[C@@H]3CCCN3C(=O)[C@@H](Cc3ccccc3)N(C)C(=O)[C@H](c3ccccc3)NC(=O)CCC(=O)Nc3cccc2c3)cc1OC [Compound 1610] | – | – | 0.0165 |
| COc1ccc(CC[C@H]2OC(=O)[C@@H]3CCCCN3C(=O)C(=O)C(C)(C)COC(=O)/C=C/CCN(C)C(=O)[C@H](C(C)C)N(C)C(=O)[C@@H]3CCCN3C(=O)[C@@H](Cc3ccccc3)N(C)C(=O)CNC(=O)COc3cccc2c3)cc1OC [Compound 1611] | – | – | 0.0489 |

Reference: patent US11066416B2, “Rapafucin derivative compounds and methods of use thereof” (The Johns Hopkins University, priority 2016, dated 2021)
